# Data reported in patent US20090298872A1, “COMPOUNDS AND COMPOSITIONS AS MODULATORS OF STEROIDAL RECEPTORS AND CALCIUM CHANNEL ACTIVITIES” (IRM LLC, priority 2004, published 2009).
# Assays:
# Format in all cases: cell-based
# [1] = molecular target: T1, MR (Homo sapiens, UniProt P08235); assay: Functional assay of mineralocorticoid receptor antagonism (mammalian two hybrid luciferase reporter, 293T cells); details: antagonism of aldosterone (0.4 nM)-induced MR activity
# T1 construct: expressed in transfected cells; host or cells: 293T cells (ATCC)
# T1 sequence (P08235 672-984): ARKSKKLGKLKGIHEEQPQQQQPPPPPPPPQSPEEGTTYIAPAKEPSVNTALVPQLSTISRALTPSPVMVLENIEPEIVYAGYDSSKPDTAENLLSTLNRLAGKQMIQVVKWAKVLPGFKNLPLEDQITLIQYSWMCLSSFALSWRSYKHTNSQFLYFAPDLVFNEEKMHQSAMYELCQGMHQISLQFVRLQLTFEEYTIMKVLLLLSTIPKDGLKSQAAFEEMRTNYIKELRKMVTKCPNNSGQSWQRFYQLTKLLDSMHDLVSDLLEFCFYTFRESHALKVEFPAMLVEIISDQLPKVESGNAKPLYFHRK
# Experimental: The MR antagonist activity of the compounds is determined in a mammalian two hybrid reporter system. The N-terminus of MR (MR-NT, sequence coding amino acid 1-597) is fused to the activation domain of the VP16 gene. The ligand binding domain of MR (MR-LBD, sequence encoding amino acid 672-984) is fused to the DNA binding domain of the yeast Gal4 gene. The MR gene is cloned from a human kidney cDNA library with PCR.
# The assay is performed in 384 well plates. Briefly, 293T cells (ATCC) are transfected with expression vectors for Gal4-MR-LBD and VP16-MR NT, and a luciferase reporter vector containing Gal4 binding sequence (pG5-Luc). Cells are plated in 384 well plates immediately after transfection (approximately 3×10^4 cells/well in 50 μl medium). The medium is supplemented with 3% charcoal-dextran treated fetal bovine serum (Hyclone). Twenty four hours after transfection, compounds prepared in DMSO are transferred to the cells. The cells are then stimulated with 0.4 nM final concentration of aldosterone (Acros) and incubated at 37° C. for another 24 hours before the luciferase activity is assayed with 20 μl of Bright-Glo (Promega) using a luminometer (CLIPR). The expression of luciferase is used as an indicator of aldosterone-induced MR trans-activation. Each compound is tested in duplicate with 12-concentration titration. IC50 values (defined as the concentration of test compound required to antagonize 50% of aldosterone-induced MR activity) are determined from the dose-response curve.
# [2] = molecular target: T2, AR (Homo sapiens, UniProt P10275, Q868H); assay: Functional assay of androgen receptor antagonism (MMTV luciferase reporter, MDA-kb2 cells); details: antagonism of dihydrotestosterone (0.3 nM)-induced AR activity
# T2 construct: endogenous in cells; host or cells: MDA-kb2 cells (ATCC)
# T2 sequence (P10275 1-920 Q868H): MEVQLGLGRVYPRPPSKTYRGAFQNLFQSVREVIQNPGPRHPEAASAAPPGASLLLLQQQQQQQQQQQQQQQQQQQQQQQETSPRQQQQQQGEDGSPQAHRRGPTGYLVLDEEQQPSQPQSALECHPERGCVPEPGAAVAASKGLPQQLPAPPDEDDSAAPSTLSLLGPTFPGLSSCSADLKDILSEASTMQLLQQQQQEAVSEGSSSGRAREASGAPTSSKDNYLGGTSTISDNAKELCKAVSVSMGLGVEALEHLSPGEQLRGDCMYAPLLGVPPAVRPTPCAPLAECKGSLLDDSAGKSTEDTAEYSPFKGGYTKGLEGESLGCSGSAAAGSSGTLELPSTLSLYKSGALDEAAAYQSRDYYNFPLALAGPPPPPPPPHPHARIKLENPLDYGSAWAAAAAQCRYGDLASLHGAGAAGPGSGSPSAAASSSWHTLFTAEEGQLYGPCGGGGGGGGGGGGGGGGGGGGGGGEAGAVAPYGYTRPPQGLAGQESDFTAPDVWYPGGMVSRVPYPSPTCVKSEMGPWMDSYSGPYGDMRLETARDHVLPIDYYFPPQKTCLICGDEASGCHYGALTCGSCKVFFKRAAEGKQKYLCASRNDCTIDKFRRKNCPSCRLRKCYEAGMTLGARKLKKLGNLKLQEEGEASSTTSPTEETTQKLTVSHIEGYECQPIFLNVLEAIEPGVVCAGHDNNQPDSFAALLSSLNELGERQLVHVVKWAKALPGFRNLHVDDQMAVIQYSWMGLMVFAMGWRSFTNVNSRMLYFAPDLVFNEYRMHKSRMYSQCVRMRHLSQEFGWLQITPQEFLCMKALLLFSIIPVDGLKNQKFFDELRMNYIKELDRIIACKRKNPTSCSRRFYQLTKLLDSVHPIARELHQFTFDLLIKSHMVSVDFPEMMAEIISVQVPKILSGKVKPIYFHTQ
# Experimental: The AR antagonist activity of the compounds is determined with the MDA-Kb2 cell line (ATCC), which stably expresses the MMTV luciferase reporter. The MMTV promoter is a mouse mammary tumor virus promoter that contains androgen receptor response elements. […] Upon stimulation with AR ligands, such as dihydrotestosterone, the MMTV luciferase reporter can be activated.
# The assay is performed in 384 well plates. Briefly, MDA-kb2 cells are plated in 384 well plates at a density of approximately 2.4×10^4 cells/well in 50 μl medium. The medium is supplemented with 5% charcoal-dextran treated fetal bovine serum (Hyclone). Twenty four hours later, compounds prepared in DMSO are transferred to the cells. The cells are then stimulated with 0.3 nM final concentration of dihydrotestosterone (Sigma) and incubated at 37° C. for another 24 hours before the luciferase activity is assayed with 20 μl of Bright-Glo (Promega) using a luminometer (CLIPR). The expression of luciferase is used as an indicator of dihydrotestosterone-induced AR trans-activation. Each compound is tested in duplicate with a 12-concentration titration. IC50 values (defined as the concentration of test compound required to antagonize 50% of dihydrotestosterone-induced AR activity) are determined from the dose-response curve.
# [3] = molecular target: T3, PR (Homo sapiens, UniProt P06401); assay: Functional assay of progesterone receptor antagonism (progesterone-induced alkaline phosphatase, T-47D cells); details: antagonism of progesterone (3 nM)-induced PR activity
# T3 construct: endogenous in cells; host or cells: T-47D cells (ATCC)
# T3 sequence (P06401 1-933): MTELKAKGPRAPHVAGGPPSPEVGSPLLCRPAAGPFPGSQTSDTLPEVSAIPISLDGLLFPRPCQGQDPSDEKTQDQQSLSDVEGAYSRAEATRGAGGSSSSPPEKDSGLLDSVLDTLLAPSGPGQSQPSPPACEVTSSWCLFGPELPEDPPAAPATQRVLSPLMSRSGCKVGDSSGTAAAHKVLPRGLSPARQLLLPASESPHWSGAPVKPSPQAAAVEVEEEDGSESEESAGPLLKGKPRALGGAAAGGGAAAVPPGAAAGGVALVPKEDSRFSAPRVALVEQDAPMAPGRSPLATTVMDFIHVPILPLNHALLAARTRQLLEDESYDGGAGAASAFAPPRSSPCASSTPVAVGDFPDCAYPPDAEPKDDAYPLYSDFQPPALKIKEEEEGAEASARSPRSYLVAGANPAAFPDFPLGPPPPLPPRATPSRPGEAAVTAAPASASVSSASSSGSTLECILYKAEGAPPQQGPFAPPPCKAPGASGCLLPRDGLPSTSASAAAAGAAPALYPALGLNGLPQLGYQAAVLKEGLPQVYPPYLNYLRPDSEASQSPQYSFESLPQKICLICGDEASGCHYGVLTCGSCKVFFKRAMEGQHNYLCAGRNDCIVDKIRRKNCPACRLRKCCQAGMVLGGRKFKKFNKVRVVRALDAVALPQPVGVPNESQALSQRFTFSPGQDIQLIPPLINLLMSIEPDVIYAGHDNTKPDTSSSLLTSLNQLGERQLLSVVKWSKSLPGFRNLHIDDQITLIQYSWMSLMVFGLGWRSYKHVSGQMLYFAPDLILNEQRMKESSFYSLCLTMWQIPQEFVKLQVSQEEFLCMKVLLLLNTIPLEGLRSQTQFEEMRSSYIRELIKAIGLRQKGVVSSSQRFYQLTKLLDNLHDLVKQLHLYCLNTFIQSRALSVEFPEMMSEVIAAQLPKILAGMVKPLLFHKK
# Experimental: The PR antagonist activity of the compounds is determined by progesterone-induced alkaline phosphatase activity in the T-47D cell line (ATCC). In the T-47D breast cancer cells, progesterone specifically induces de novo synthesis of a membrane-associated alkaline phosphatase enzyme in a time and dose-dependent manner (Di Lorenzo et al., Cancer Research, 51: 4470-4475 (1991)). The alkaline phosphatase enzymatic activity can be measured with a chemiluminescent substrate, such as CSPD® (Applied Biosystems).
# The assay is performed in 384 well plates. Briefly, T-47D cells are plated in 384 well plates at a density of approximately 2.5×10^4 cells/well in 50 μl medium supplemented with 10% fetal bovine serum. Twenty four hours later, the medium is aspirated. New medium that is free of phenol red and serum is added to the cells. Compounds prepared in DMSO are transferred to the cells. The cells are then stimulated with 3 nM final concentration of progesterone (Sigma) and incubated at 37° C. for another 24 hours before the alkaline phosphatase is assayed with 25 μl of CSPD® (Applied Biosystems) using a luminometer (CLIPR). The expression of alkaline phosphatase is used as an indicator of progesterone-induced PR trans-activation. Each compound is tested in duplicate with a 12-concentration titration. […]
# [4] = molecular target: T4, GR (Homo sapiens, UniProt P04150); assay: Functional assay of glucocorticoid receptor antagonism (Gal4-GR-LBD luciferase reporter, COS-7 cells); details: antagonism of dexamethasone (10 nM)-induced GR activity
# T4 construct: expressed in transfected cells; host or cells: COS-7 cells (ATCC)
# T4 sequence (P04150 541-778 isoform P04150-3): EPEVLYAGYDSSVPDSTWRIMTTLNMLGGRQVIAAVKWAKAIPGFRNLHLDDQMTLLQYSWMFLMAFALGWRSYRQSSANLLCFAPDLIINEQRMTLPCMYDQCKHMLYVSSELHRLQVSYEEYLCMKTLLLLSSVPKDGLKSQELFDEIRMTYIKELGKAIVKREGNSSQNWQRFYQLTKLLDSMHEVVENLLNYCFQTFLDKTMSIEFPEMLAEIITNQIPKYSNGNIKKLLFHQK
# Experimental: The GR antagonist activity of the compounds is determined in a mammalian two hybrid reporter system. The ligand binding domain of GR (GR-LBD, sequence encoding amino acid 541-778) is fused to the DNA binding domain of the yeast Gal4 gene. The GR gene is cloned from a human lung cDNA library with PCR.
# The assay is performed in 384 well plates: COS-7 cells (ATCC) are transfected with expression vectors for Gal-4-GR-LBD and a luciferase reporter vector containing Gal4 binding sequence (pG5-Luc). Cells are plated in 384 well plates immediately after transfection (approximately 8000 cells/well in 50 μl medium). The medium is supplemented with 3% charcoal-dextran treated fetal bovine serum (Hyclone). Twenty four hours after transfection, compounds prepared in DMSO are transferred to the cells. The cells are then stimulated with 10 nM final concentration of dexamethasone (Sigma) and incubated at 37° C. for another 24 hours before the luciferase activity is assayed with 20 μl of Bright-Glo (Promega) using a luminometer (CLIPR). The expression of luciferase is used as an indicator of dexamethasone-induced GR trans-activation. Each compound is tested in duplicate with a 12-concentration titration. IC50 values (defined as the concentration of test compound required to antagonize 50% of dexamethasone-induced GR activity) are determined from the dose-response curve.
Structure (SMILES),IC50 [1] [nM],IC50 [2] [nM],IC50 [3] [nM],IC50 [4] [nM]
"COc1ccccc1NC(=O)C1=C(C)NC(SC)=C(C#N)C1c1ccccc1Br (stereo not shown) [Compound 14, 2-methylthio-3-cyano-4-(2-bromophenyl)-5-(2-methoxyphenyl)carbamoyl-6-methyl-1,4-dihydro-pyridine]",8,2600,,
"COCC1=C(C(=O)OC(C)C)C(c2ccc(F)cc2Br)C(C#N)=C(C)N1 (stereo not shown) [Compound 96, 5-isopropyl-2-methyl-3-cyano-4-(2-bromo-4-fluorophenyl)-6-(methoxymethyl)-1,4-dihydro-pyridine-5-carboxylate]",9,39800,2300,3100
"COC(=O)C1=C(C)NC(C)=C(C#N)C1c1ccc(F)cc1Cl (stereo not shown) [Example 207, 5-methyl-2,6-dimethyl-3-cyano-4-(2-chloro-4-fluorophenyl)-1,4-dihydro-pyridine-5-carboxylate]",41,2860,478,6850
